The values below come from ChEMBL document CHEMBL5512632, “Unlocking the potential of 1,4-naphthoquinones: A comprehensive review of their anticancer properties” (Eur J Med Chem, 2024).

A word on the pIC50: it is the negative decadic logarithm of the IC50, by convention in mol/L. The term IC50 denotes the concentration that inhibits the measured activity by half.

The test system of one assay is K562. Description: Cytotoxicity against human K562 cells assessed as reduction in cell viability incubated for 72 hrs by MTT reagent based microplate reader assay. Format: functional. Conditions: K562, 72 h.
Assay [1] has as its system HCT-15. Kind of assay: Cytotoxicity against human HCT-15 cells assessed as reduction in cell viability incubated for 72 hrs by MTT reagent based microplate reader assay. In kind it is functional. The settings on record: HCT-15, 72 h. Background: Formazan colour is commonly taken as a measure of viable cells.
Assay [2] concerns HCT-116. Kind of assay: Cytotoxicity against human HCT-116 cells assessed as reduction in cell viability incubated for 72 hrs by MTT reagent based microplate reader assay. Format: functional. Conditions: HCT-116, 72 h.
A short description of assay [3]: Cytotoxicity against human Lung adenocarcinoma cell line. Format: functional, cell-based.
The test system of assay [4] is A549. Kind of assay: Cytotoxicity against human A549 cells incubated for 24 hrs by MTT assay. In kind it is functional, cell-based. The settings on record: A549, 24 h.
In assay [5] the test system is NAMALVA. Kind of assay: Antiproliferative activity against human NAMALVA cells assessed as inhibition of cell growth incubated upto 24 hrs by MTT assay. Format: functional, cell-based.
Assay [6] relates to NAMALVA. Description: Antitumor activity against human NAMALVA cells xenografted in NOD/SCID mouse assessed as reduction in tumor weight at 4 mg/kg,ip administration for 19 consecutive days. In kind it is functional. Further details: scale not given: the % may be the effect or the level left. (In general: In xenograft studies the graft and the host belong to different species.)

The test system of assay [7] is HeLa. Kind of assay: Cytotoxicity against human HeLa cells assessed as reduction in cell viability incubated for 48 hrs by MTT assay. In kind it is functional, cell-based.
In assay [8] the test system is MCF7. Description: Cytotoxicity against human MCF7 cells assessed as reduction in cell viability incubated for 48 hrs by MTT assay. In kind it is functional, cell-based. The settings on record: MCF7, 48 h.
For assay [9], the system named is PC-3. Description: Cytotoxicity against human PC-3 cells assessed as reduction in cell viability incubated for 48 hrs by MTT assay. Conditions: PC-3, 48 h. Format: functional, cell-based.
Assay [10] concerns DU-145. Kind of assay: Cytotoxicity against human DU-145 cells assessed as reduction in cell viability incubated for 48 hrs by MTT assay. The settings on record: DU-145, 48 h. In kind it is functional, cell-based.
Assay [11] deals with HCT-15. Kind of assay: Cytotoxicity against human HCT-15 cells assessed as reduction in cell viability incubated for 48 hrs by MTT assay. In kind it is functional, cell-based. The settings on record: HCT-15, 48 h.
Assay [12] concerns HCT-15. Description: Antiproliferative activity against human HCT-15 cells assessed as inhibition of cell growth incubated for 72 hrs by MTT reagent based microplate reader assay. In kind it is functional. The settings on record: HCT-15, 72 h.
The test system of the next assay is MGC-803. Kind of assay: Antiproliferative activity against human MGC-803 cells assessed as inhibition of cell growth incubated for 72 hrs by MTT reagent based microplate reader assay. In kind it is functional. The settings on record: MGC-803, 72 h.
Another assay concerns Bel-7402. Description: Antiproliferative activity against human Bel-7402 cells assessed as inhibition of cell growth incubated for 72 hrs by MTT reagent based microplate reader assay. In kind it is functional. Conditions: Bel-7402, 72 h.
For assay [13], the system named is MCF7. Description: Antiproliferative activity against human MCF7 cells assessed as inhibition of cell growth incubated for 72 hrs by MTT reagent based microplate reader assay. Format: functional. The settings on record: MCF7, 72 h.
In the next assay the test system is TK-10. Description: Cytotoxicity against human TK-10 cells by sulforhodamine B staining based spectrophotometric analysis. In kind it is functional, cell-based. Background: Sulforhodamine B stains cellular protein and so reports cell mass.
The test system of another assay is UACC-62. Kind of assay: Cytotoxicity against human UACC-62 cells by sulforhodamine B staining based spectrophotometric analysis. In kind it is functional, cell-based.
In assay [14] the test system is MCF7. Description: Cytotoxicity against human MCF7 cells by sulforhodamine B staining based spectrophotometric analysis. In kind it is functional, cell-based.
The test system of assay [15] is PC-3. Description: Cytotoxicity against human PC-3 cells by sulforhodamine B staining based spectrophotometric analysis. In kind it is functional, cell-based.
For assay [16], the system named is HepG2. Kind of assay: Cytotoxicity against human HepG2 cells by sulforhodamine B staining based spectrophotometric analysis. In kind it is functional, cell-based.
In assay [17] the test system is HeLa. Kind of assay: Cytotoxicity against human HeLa cells by sulforhodamine B staining based spectrophotometric analysis. Format: functional, cell-based.
In a further assay the test system is Glioblastoma cell line. Description: Antiproliferative activity against human Glioblastoma cell line assessed as reduction in cell growth incubated for 24 hrs by MTT assay. Format: functional, cell-based.
Assay [18] relates to A549. Description: Antiproliferative activity against human A549 cells assessed as reduction in cell growth incubated for 24 hrs by MTT assay. Format: functional, cell-based. The settings on record: A549, 24 h.
Assay [19] deals with HeLa. Description: Antiproliferative activity against human HeLa cells assessed as reduction in cell growth incubated for 24 hrs by MTT assay. In kind it is functional, cell-based.
A short description of assay [20]: Antiproliferative activity against human SK-RC-45 cells assessed as reduction in cell growth incubated for 24 hrs by MTT assay. In kind it is functional, cell-based. The settings on record: SK-RC-45, 24 h.
The test system of a further assay is A498. Description: Antiproliferative activity against human A498 cells assessed as reduction in cell growth incubated for 24 hrs by MTT assay. In kind it is functional, cell-based. The settings on record: A498, 24 h.
The subject of another assay is MDA-MB-231. Description: Cytotoxicity against human MDA-MB-231 cells incubated for 24 hrs by CCK-8 assay. In kind it is functional, cell-based. Conditions: MDA-MB-231, 24 h.
The next assay concerns MDA-MB-468. Kind of assay: Cytotoxicity against human MDA-MB-468 cells incubated for 24 hrs by CCK-8 assay. Format: functional, cell-based. Conditions: MDA-MB-468, 24 h.
In assay [21] the test system is SW480. Kind of assay: Cytotoxicity against human SW480 cells incubated for 24 hrs by CCK-8 assay. Format: functional, cell-based. The settings on record: SW480, 24 h.
A further assay relates to SW-620. Description: Cytotoxicity against human SW620 cells incubated for 24 hrs by CCK-8 assay. The settings on record: SW-620, 24 h. In kind it is functional, cell-based.
Assay [22] relates to HCT-116. Kind of assay: Cytotoxicity against human HCT-116 cells incubated for 24 hrs by CCK-8 assay. Format: functional, cell-based. Conditions: HCT-116, 24 h.
Assay [23] relates to A549. Kind of assay: Cytotoxicity against human A549 cells incubated for 24 hrs by CCK-8 assay. In kind it is functional, cell-based. Conditions: A549, 24 h.
The subject of a further assay is Huh-7. Description: Cytotoxicity against human Huh-7 cells incubated for 24 hrs by CCK-8 assay. Format: functional, cell-based. The settings on record: Huh-7, 24 h.
Assay [24] concerns HepG2. Kind of assay: Cytotoxicity against human HepG2 cells incubated for 24 hrs by CCK-8 assay. The settings on record: HepG2, 24 h. Format: functional, cell-based.
Another assay deals with SK-BR-3. Kind of assay: Cytotoxicity against human SK-BR-3 cells incubated for 24 hrs by CCK-8 assay. Format: functional, cell-based. The settings on record: SK-BR-3, 24 h.
Assay [25] concerns MCF7. Description: Cytotoxicity against human MCF7 cells incubated for 24 hrs by CCK-8 assay. Conditions: MCF7, 24 h. In kind it is functional, cell-based.
The next assay deals with BT-549. Description: Cytotoxicity against human BT-549 cells incubated for 24 hrs by CCK-8 assay. In kind it is functional, cell-based. The settings on record: BT-549, 24 h.
A further assay concerns NCI-H1299. Description: Cytotoxicity against human NCI-H1299 cells incubated for 24 hrs by CCK-8 assay. Conditions: NCI-H1299, 24 h. Format: functional, cell-based.
The test system of the next assay is NCI-H460. Kind of assay: Cytotoxicity against human NCI-H460 cells incubated for 24 hrs by CCK-8 assay. Format: functional, cell-based. The settings on record: NCI-H460, 24 h.
The test system of assay [26] is SW480. Kind of assay: Antitumor activity against human SW480 cells xenografted in BALB/c mouse assessed as reduction in tumor volume at 20 mg/kg,po administrated with olaparib for 15 days. Format: functional. Also noted: scale not given: the % may be the effect or the level left. Conditions: time 15 day.
Assay [27] deals with DBTRG-05MG. Kind of assay: Antiproliferative activity against human DBTRG-05MG cells assessed as inhibition of cell growth incubated for 72 hrs by cell counting kit method. Format: functional, cell-based. The settings on record: Homo sapiens, DBTRG-05MG, 72 h.
Assay [28] relates to DBTRG-05MG. Kind of assay: Antiproliferative activity against human DBTRG-05MG cells assessed as inhibition of cell growth incubated for 72 hrs in presence of sodium orthovanadate by cell counting kit method. In kind it is functional, cell-based.
In assay [29] the test system is DU-145. Description: Cytotoxicity against human DU-145 cells incubated for 48 hrs by sulforhodamine B staining based spectrophotometric analysis. Format: functional, cell-based. The settings on record: DU-145, 48 h.
Assay [30] deals with MCF7. Kind of assay: Cytotoxicity against human MCF7 cells incubated for 48 hrs by sulforhodamine B staining based spectrophotometric analysis. In kind it is functional, cell-based. Conditions: MCF7, 48 h.

pIC50: −log10 of the molar value. Converted amounts (≈) assume the structure as drawn.

As for `COc1cc(C(CCC(C)C)OC)c(OC)c2c1/C(=N/O)C=C/C2=N/O` (stereo not given), the results for the pIC50 in the assay on K562, in the assay with HCT-15 [1] and in the assay with HCT-116 [2] were 5.90, 5.79 and 5.61, respectively.

With `CC(C)=CC[C@@H](O)C1=CC(=O)c2c(O)ccc(O)c2C1=O` [SHIKONIN], the figures for the pIC50 (in [3]; in the assay with NAMALVA [5]) were over 5.30 and 3.72, respectively. In the assay on A549 [4], this compound yielded an IC50 of 3.52 µg/mL (≈ 12.2 µM). Further, in the assay with NAMALVA [6], the Activity turned out to be 50%.

Regarding `CO/N=C1\C(c2cc3c(cc2OC)OCO3)=CC(=O)c2cc3c(cc21)OCO3`, the pIC50 is 6.98 in the assay with HeLa [7]; 6.71 in the assay with MCF7 [8]; 6.50 in the assay on PC-3 [9]; 7.64 with DU-145 [10]; 7.26 in the assay with HCT-15 [11].

Consider `CCCCCCCC(Oc1cc(OC)c(OC)c(OC)c1)c1ccc2c(c1)/C(=N\O)C=C/C2=N\O` (stereo not given), for which the pIC50 is 5.79 with HCT-15 [12], 5.48 with MGC-803, 5.38 with Bel-7402 and 5.16 with MCF7 [13].

In the case of `O=C1C(CSc2ccc(F)cc2)=C(C2=C(CSc3ccc(F)cc3)C(=O)c3ccccc3C2=O)C(=O)c2ccccc21`, the pIC50 with TK-10 is 5.42; in the assay with UACC-62 it was 5.53; in the assay on MCF7 [14], 5.49; in the assay on PC-3 [15] it was 5.16; in the assay on HepG2 [16], 5.06; in the assay with HeLa [17], 4.50.

In the case of `O=C1C(O)=C(C(C2=C(O)C(=O)c3ccccc3C2=O)c2ccc(C(F)(F)F)cc2)C(=O)c2ccccc21`, the pIC50 in the assay on Glioblastoma cell line is 4.76; in the assay on A549 [18] it was 4.53; in the assay on HeLa [19], 4.46; in [20], 4.52; in the assay with A498 it was 4.56.

As to `CC(C)=CC[C@H](O)C1=CC(=O)c2c(O)ccc(O)c2C1=O` [ALKANNIN], the pIC50 with MDA-MB-231, in the assay on MDA-MB-468, in the assay on SW480 [21], in the assay with SW-620, in the assay on HCT-116 [22] and in the assay with A549 [23] was 5.40 in each case. Moreover, the pIC50 in the assay on Huh-7, with HepG2 [24], in the assay with SK-BR-3, with MCF7 [25], in the assay on BT-549 and in the assay with NCI-H1299 was 5.40 each time. The compound further gave a pIC50 with NCI-H460 of 5.40. The Activity in the assay on SW480 [26] is over 50%.

For `CC1=CC(=O)c2ccccc2C1=O` [MENADIONE], the results for the pIC50 in the assay with DBTRG-05MG [27] and in the assay with DBTRG-05MG [28] were 4.66 and 4.89, respectively.

On to `O=C1C(Cl)=C(NCCN2CCN(C3=C(Cl)C(=O)c4ccccc4C3=O)CC2)C(=O)c2ccccc21`, for which the pIC50 in the assay on DU-145 [29] is 5.60; with MCF7 [30], 5.67.
